Reference: patent US8765730B2 (Hoffmann-La Roche Inc, priority 2010, dated 2014)

Target: T1, human GPBAR1 receptor (Homo sapiens, UniProt Q8TDU6)
T1 construct: expressed in transfected cells
T1 sequence (Q8TDU6 1-330): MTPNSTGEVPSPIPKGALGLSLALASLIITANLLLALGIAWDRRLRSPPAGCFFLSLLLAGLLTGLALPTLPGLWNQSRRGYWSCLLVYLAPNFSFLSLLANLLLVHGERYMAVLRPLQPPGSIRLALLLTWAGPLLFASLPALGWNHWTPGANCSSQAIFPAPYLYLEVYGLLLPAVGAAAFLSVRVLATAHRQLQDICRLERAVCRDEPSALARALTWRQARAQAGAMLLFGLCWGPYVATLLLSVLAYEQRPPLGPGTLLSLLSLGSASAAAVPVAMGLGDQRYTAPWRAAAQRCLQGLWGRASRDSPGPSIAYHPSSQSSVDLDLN
Experiment: functional cAMP assay in CHO-dhfr(minus) cells expressing human GPBAR1 receptors
Type: cell-based
Details: functional cAMP assay, 30 min at 30° C., read-out: human EC50
How it was run: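 Agonist cAMP read-out: stable GPBAR1 CHO-dhfr− clone, 30 min compound exposure at 30° C following 30 min IBMX (1 mM) preincubation in Krebs Ringer bicarbonate. Time-resolved energy-transfer detection gives EC50; parental CHO cells serve as counter-screen.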

EC50 [nM] | Structure (SMILES)
91 | COC(CCl)CNc1ccc([C@@H](C/C(=N\O)c2ccnc(C)c2)c2ccccc2C)cc1 (stereo partly drawn) [Example 357, (R)-3-[4-(3-Chloro-2-methoxy-propylamino)-phenyl]-1-(2-methyl-pyridin-4-yl)-3-o-tolyl-propan-1-one oxime]
19 | O/N=C(\CC(c1ccccc1)c1ccc(Br)cc1)c1ccncc1 (stereo not drawn) [Example 5, (E)-3-(4-Bromo-phenyl)-3-phenyl-1-pyridin-4-yl-propan-1-one oxime]

Same assay, conditions: human EC50, functional cAMP assay, 30 min at 30° C.

Structure (SMILES) | EC50 [nM]
Cc1ccccc1C(CC(=NO)c1ccc2ncccc2c1)c1ccc(Br)cc1 (racemic) [Example 125, 3-(4-Bromo-phenyl)-1-quinolin-6-yl-3-o-tolyl-propan-1-one oxime] | 2210
O/N=C(\CC(c1ccccc1)c1ccc(C2CC2)cc1)c1ccncc1 (stereo not drawn) [Example 16, (E)-3-(4-Cyclopropyl-phenyl)-3-phenyl-1-pyridin-4-yl-propan-1-one oxime] | 178
Cc1ccccc1C(C/C(=N\O)c1ccc(=O)n(C)c1)c1ccc(C(=O)NC(CO)CO)cc1 (stereo not drawn) [Example 304, (E)-N-(1,3-Dihydroxypropan-2-yl)-4-(3-(hydroxyimino)-3-(1-methyl-6-oxo-1,6-dihydropyridin-3-yl)-1-o-tolylpropyl)benzamide] | 506
CCOc1ccc([C@H](C/C(=N\O)c2ccnc(C)c2)c2ccc(Cl)cc2C)cc1 [Example 366, (S)-3-(4-Chloro-2-methyl-phenyl)-3-(4-ethoxy-phenyl)-1-(2-methyl-pyridin-4-yl)-propan-1-one oxime] | 171
Cn1cc(/C(CC(c2ccc(-c3ccc(C(=O)O)cc3)cc2)c2ccccc2F)=N/O)ccc1=O (stereo not drawn) [Example 244, (E)-4′-(1-(2-Fluorophenyl)-3-(hydroxyimino)-3-(1-methyl-6-oxo-1,6-dihydropyridin-3-yl)propyl)biphenyl-4-carboxylic acid] | 260
Cn1cc(/C(CC(c2ccc(O)cc2)c2ccc(Cl)cc2F)=N/O)ccc1=O (stereo not drawn) [Example 318, (E)-5-(3-(4-Chloro-2-fluorophenyl)-1-(hydroxyimino)-3-(4-hydroxyphenyl)propyl)-1-methylpyridin-2(1H)-one] | 193
Cc1cc(/C(C[C@H](c2ccc(C3CCNCC3)cc2)c2ccc(Cl)cc2C)=N/O)ccn1 [Example 388, (R,E)-3-(4-chloro-2-methylphenyl)-1-(2-methylpyridin-4-yl)-3-(4-(piperidin-4-yl)phenyl)propan-1-one oxime] | 172
CCCC(C/C(=N\O)c1ccc(=O)n(C)c1)c1ccc(Br)cc1 (stereo not drawn) [Example 174, 5-{3-(4-Bromo-phenyl)-1-[(E)-hydroxyimino]-hexyl}-1-methyl-1H-pyridin-2-one] | 268
COc1ccc(C2(C/C(=N\O)c3ccnc(C)c3)CCCCC2)cc1 [Example 158, (E)-2-[1-(4-Methoxy-phenyl)-cyclohexyl]-1-(2-methyl-pyridin-4-yl)-ethanone oxime] | 1030
Cc1cc(/C(C[C@@H](c2ccc(C(=O)O)cc2)c2ccc(Cl)cc2C)=N/O)ccn1 [Example 282, 4-[(S)-1-(4-Chloro-2-methyl-phenyl)-3-[(E)-hydroxyimino]-3-(2-methyl-pyridin-4-yl)-propyl]-benzoic acid] | 648
Cn1cc(/C(CC(Cc2ccc(OC(F)(F)F)cc2)c2ccc(Br)cc2)=N/O)ccc1=O (stereo not drawn) [Example 180, 5-[3-(4-Bromo-phenyl)-1-[(E)-hydroxyimino]-4-(4-trifluoromethoxy-phenyl)-butyl]-1-methyl-1H-pyridin-2-one] | 3450
Cn1cc(/C(CC(c2ccc(-c3ccc(CC(=O)O)cc3)cc2)c2ccc(Cl)cc2F)=N/O)ccc1=O (stereo not drawn) [Example 460, {4′-[1-(4-Chloro-2-fluoro-phenyl)-3-[(E)-hydroxyimino]-3-(1-methyl-6-oxo-1,6-dihydro-pyridin-3-yl)-propyl]-biphenyl-4-yl}-acetic acid] | 421
Cc1cc(Cl)ccc1C(C/C(=N\O)c1ccc(=O)n(C)c1)c1ccc(OCCCC(=O)O)cc1 (stereo not drawn) [Example 349, 4-{4-[1-(4-Chloro-2-methyl-phenyl)-3-[(E)-hydroxyimino]-3-(1-methyl-6-oxo-1,6-dihydro-pyridin-3-yl)-propyl]-phenoxy}-butyric acid] | 267
Cn1cc(/C(CC(c2ccc(-c3c[nH]c(=O)[nH]c3=O)cc2)c2ccc(Cl)cc2F)=N/O)ccc1=O (stereo not drawn) [Example 471, 5-{4-[1-(4-Chloro-2-fluoro-phenyl)-3-[(E)-hydroxyimino]-3-(1-methyl-6-oxo-1,6-dihydro-pyridin-3-yl)-propyl]-phenyl}-1H-pyrimidine-2,4-dione] | 170

Next, values leading:

EC50 [nM] | Structure (SMILES)
18 | COC(=O)CNC(=O)c1ccc(-c2ccc(C(C/C(=N\O)c3ccc(=O)n(C)c3)c3ccc(Cl)cc3C)cc2)cc1 (stereo not drawn) [Example 228, (E)-methyl 2-(4′-(1-(4-chloro-2-methylphenyl)-3-(hydroxyimino)-3-(1-methyl-6-oxo-1,6-dihydropyridin-3-yl)propyl)biphenyl-4-ylcarboxamido)acetate]
18 | Cc1cc(Cl)ccc1[C@@H](C/C(=N\O)c1ccc(=O)n(C)c1)c1ccc(-c2ccc(NS(C)(=O)=O)cc2)cc1 (single isomer, unassigned) [Example 416, (+)-N-{4′-[1-(4-Chloro-2-methyl-phenyl)-3-[(E)-hydroxyimino]-3-(1-methyl-6-oxo-1,6-dihydro-pyridin-3-yl)-propyl]-biphenyl-4-yl}-methanesulfonamide]
145 | Cc1cc(/C(C[C@H](c2ccc(C3CCNCC3)cc2)c2ccccc2C)=N/O)ccn1 [Example 378, (R,E)-1-(2-Methylpyridin-4-yl)-3-(4-(piperidin-4-yl)phenyl)-3-o-tolylpropan-1-one oxime]
99 | Cc1ccccc1[C@H](C/C(=N\O)c1ccc(=O)n(C)c1)c1ccc(C2CCN(S(C)(=O)=O)CC2)cc1 [Example 509, (R,E)-5-(1-(Hydroxyimino)-3-(4-(1-(methylsulfonyl)piperidin-4-yl)phenyl)-3-o-tolylpropyl)-1-methylpyridin-2(1H)-one]
41 | Cc1cc(/C(C[C@H](c2ccc(Br)cc2)c2ccc(F)cc2F)=N/O)ccn1 (single isomer, unassigned) [Example 426, (−)-3-(4-Bromo-phenyl)-3-(2,4-difluoro-phenyl)-1-(2-methyl-pyridin-4-yl)-propan-1-one oxime]
51 | Cc1cc(/C(C[C@@H](c2ccc(C(=O)N(C)C)cc2)c2ccc(Cl)cc2C)=N/O)ccn1 [Example 283, 4-[(S)-1-(4-Chloro-2-methyl-phenyl)-3-[(E)-hydroxyimino]-3-(2-methyl-pyridin-4-yl)-propyl]-N,N-dimethyl-benzamide]
55 | Cc1cc(/C(CC(c2ccc(C(=O)NCCO)cc2)c2ccc(F)cc2F)=N/O)ccn1 (stereo not drawn) [Example 433, 4-[1-(2,4-Difluoro-phenyl)-3-[(E)-hydroxyimino]-3-(2-methyl-pyridin-4-yl)-propyl]-N-(2-hydroxy-ethyl)-benzamide]
170 | Cn1cc(/C(CC(c2ccc(-c3ccc(C(=O)O)cc3)cc2)c2ccc(Cl)cc2F)=N/O)ccc1=O (single isomer, unassigned; (+)) [Example 241, (+)-4′-[1-(4-Chloro-2-fluoro-phenyl)-3-[(E)-hydroxyimino]-3-(1-methyl-6-oxo-1,6-dihydro-pyridin-3-yl)-propyl]-biphenyl-4-carboxylic acid]
57 | Cc1cc(/C(CC(c2ccc(C(=O)NC3CC3)cc2)c2ccc(F)cc2F)=N/O)ccn1 (stereo not drawn) [Example 432, N-Cyclopropyl-4-[1-(2,4-difluoro-phenyl)-3-[(E)-hydroxyimino]-3-(2-methyl-pyridin-4-yl)-propyl]-benzamide]
61 | Cc1cc(C(CC(c2ccc(Br)cc2)c2ccccc2C)=NO)cc(F)n1 (racemic) [Example 126, 3-(4-Bromo-phenyl)-1-(2-fluoro-6-methyl-pyridin-4-yl)-3-o-tolyl-propan-1-one oxime]
2 | Cc1cc(/C(C[C@H](c2ccc(-c3ncco3)cc2)c2ccccc2C)=N/O)ccn1 [Example 423]
28 | Cc1cc(/C(C[C@H](c2ccc(O)cc2)c2ccccc2C)=N/O)ccn1 [Example 363, (R)-3-(4-Hydroxy-phenyl)-1-(2-methyl-pyridin-4-yl)-3-o-tolyl-propan-1-one oxime]
3 | Cc1cc(/C(C[C@H](c2ccc(-c3ccc(C(=O)NCC(=O)O)cc3)cc2)c2ccccc2C)=N/O)ccn1 [Example 96, ({4′-[(R)-3-[(E)-Hydroxyimino]-3-(2-methyl-pyridin-4-yl)-1-o-tolyl-propyl]-biphenyl-4-carbonyl}-amino)-acetic acid]
117 | ON=C(CC(c1ccccc1)c1ccccc1)c1cc(Cl)ncc1F (racemic) [Example 55, 1-(2-Chloro-5-fluoro-pyridin-4-yl)-3,3-diphenyl-propan-1-one oxime]
12 | Cn1cc(/C(CC(c2ccccc2Cl)C2CCCC2)=N/O)ccc1=O (stereo not drawn) [Example 197, 5-{3-(2-Chloro-phenyl)-3-cyclopentyl-1-[(E)-hydroxyimino]-propyl}-1-methyl-1H-pyridin-2-one]
53 | Cc1cc(/C(C[C@@H](c2ccccc2)c2ccc(Cl)cc2C)=N/O)ccn1 [Example 390, (S)-3-(4-Chloro-2-methyl-phenyl)-1-(2-methyl-pyridin-4-yl)-3-phenyl-propan-1-one oxime]
15 | Cc1cc(/C(C[C@H](c2ccc(-c3ccc(C(=O)O)c(Cl)c3)cc2)c2ccc(Cl)cc2F)=N/O)ccn1 [Example 452, (−)-3-Chloro-4′-[1-(4-chloro-2-fluoro-phenyl)-3-[(E)-hydroxyimino]-3-(2-methyl-pyridin-4-yl)-propyl]-biphenyl-4-carboxylic acid]
